Test results from ChEMBL document CHEMBL4732176, “Synthesis and biological evaluation of novel N-substituted benzamides as anti-migration agents for treatment of osteosarcoma” (Eur J Med Chem, 2021).
Activity calls are given as the source filed them. The rule behind the calls is not given here.

Target: Focal adhesion kinase 1 (Homo sapiens) (UniProt Q05397)
Experiment: Inhibition of FAK phosphorylation in human MG-63 cells at 5 to 20 uM incubated for 48 hrs by Western blot analysis
Assay type: cell-based
Conditions: dose 5-20 µM

Chain of Focal adhesion kinase 1 (Homo sapiens) (Q05397 2-1052 limits assumed): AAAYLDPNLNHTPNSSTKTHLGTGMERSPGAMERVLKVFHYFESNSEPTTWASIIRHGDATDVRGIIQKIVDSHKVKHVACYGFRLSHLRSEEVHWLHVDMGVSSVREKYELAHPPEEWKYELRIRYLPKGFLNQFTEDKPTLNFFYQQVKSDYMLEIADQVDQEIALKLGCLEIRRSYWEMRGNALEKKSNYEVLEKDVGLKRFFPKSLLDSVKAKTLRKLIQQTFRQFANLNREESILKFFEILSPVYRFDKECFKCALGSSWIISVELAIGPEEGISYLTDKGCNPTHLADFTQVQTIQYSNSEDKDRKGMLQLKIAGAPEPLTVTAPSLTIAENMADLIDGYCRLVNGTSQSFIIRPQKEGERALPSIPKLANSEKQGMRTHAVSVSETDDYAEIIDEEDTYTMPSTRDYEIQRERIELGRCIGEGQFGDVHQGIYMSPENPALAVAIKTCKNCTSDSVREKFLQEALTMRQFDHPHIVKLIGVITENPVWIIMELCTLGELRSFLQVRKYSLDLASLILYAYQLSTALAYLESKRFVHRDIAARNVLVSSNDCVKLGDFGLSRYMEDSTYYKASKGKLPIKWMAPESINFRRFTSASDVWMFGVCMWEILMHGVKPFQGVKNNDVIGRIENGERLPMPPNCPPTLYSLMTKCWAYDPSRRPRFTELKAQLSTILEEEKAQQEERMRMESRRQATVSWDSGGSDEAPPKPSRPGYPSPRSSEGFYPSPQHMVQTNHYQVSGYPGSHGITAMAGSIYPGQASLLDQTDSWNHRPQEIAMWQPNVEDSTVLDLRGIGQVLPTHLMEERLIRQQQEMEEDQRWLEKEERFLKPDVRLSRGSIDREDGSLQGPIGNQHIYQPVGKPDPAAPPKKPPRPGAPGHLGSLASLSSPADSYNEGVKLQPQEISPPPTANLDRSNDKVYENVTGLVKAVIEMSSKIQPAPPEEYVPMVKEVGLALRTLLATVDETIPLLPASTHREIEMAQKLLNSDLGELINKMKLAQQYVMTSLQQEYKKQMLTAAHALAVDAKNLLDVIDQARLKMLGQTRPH

**Q.** With `O=C(Nc1ccc2c(cnn2C(=O)c2ccccc2)c1)c1cc(Cl)ccc1O` as the compound, how does the inhibition read?
**A.** The inhibition was “Active”.

Target: Focal adhesion kinase 1 (Homo sapiens) (UniProt Q05397)
Experiment: Inhibition of FAK phosphorylation in human U2OS cells at 5 to 20 uM incubated for 48 hrs by Western blot analysis
Assay type: cell-based
Conditions: dose 5-20 µM

**Q.** Which inhibition does the source give for `O=C(Nc1ccc2c(cnn2C(=O)c2ccccc2)c1)c1cc(Cl)ccc1O` here?
**A.** The inhibition was “Active”.

Tested on: not listed separately
Experiment: Cytotoxicity against human MIHA cells assessed as reduction in cell viability incubated for 48 hrs by MTT assay
Assay type: cell-based
Conditions: not given

**Q.** Which IC50 does the source give for `O=C(Nc1cc(C(F)(F)F)cc(C(F)(F)F)c1)c1cc(Cl)ccc1O` [IMD-0354] here?
**A.** The IC50 was > 100 µM.

Tested on: U2OS
Experiment: Cytotoxicity against human U2OS cells assessed as reduction in cell viability incubated for 48 hrs by MTT assay
Assay type: functional, cell-based
Conditions: not given

**Q.** For `O=C(Nc1cc(C(F)(F)F)cc(C(F)(F)F)c1)c1cc(Cl)ccc1O` [IMD-0354], which IC50 is on record?
**A.** Its IC50 is 50.9 µM.

Tested on: not listed separately
Experiment: Cytotoxicity against human MIHA cells assessed as reduction in cell viability at 40 uM incubated for 48 hrs by MTT assay
Assay type: cell-based
Conditions: not given

**Q.** With `O=C(Nc1cccc2nn(CCO)cc12)c1cc(Cl)ccc1O` as the compound, how does the Activity read?
**A.** The Activity was “Non-Toxic”.

**Q.** For `COC(=O)CCn1cc2c(NC(=O)c3cc(Cl)ccc3O)cccc2n1`, which Activity is on record?
**A.** Its Activity is “Non-Toxic”.

**Q.** With `COc1ccc(NC(=O)n2ncc3c(NC(=O)c4cc(Cl)ccc4O)cccc32)cc1` as the compound, how does the Activity read?
**A.** Its Activity is “Non-Toxic”.

**Q.** Which Activity does the source give for `CN(C)C(=O)n1ncc2c(NC(=O)c3cc(Cl)ccc3O)cccc21` here?
**A.** The Activity was “Non-Toxic”.

**Q.** For `O=C(Nc1cccc2[nH]ccc12)c1cc(Cl)ccc1O`, which Activity is on record?
**A.** Its Activity is “Non-Toxic”.

**Q.** Which Activity does the source give for `O=C(Nc1cccc2[nH]ncc12)c1cc(Cl)ccc1O` here?
**A.** The Activity was “Non-Toxic”.

**Q.** For `O=C(Nc1ccc2[nH]ccc2c1)c1cc(Cl)ccc1O`, which Activity is on record?
**A.** Its Activity is “Non-Toxic”.

**Q.** Which Activity does the source give for `CN(C)c1ccc(C(=O)n2ncc3c(NC(=O)c4cc(Cl)ccc4O)cccc32)cc1` here?
**A.** Its Activity is “Non-Toxic”.

**Q.** For `O=C(Nc1cc(C(F)(F)F)cc(C(F)(F)F)c1)c1cc(Cl)ccc1O` [IMD-0354], which Activity is on record?
**A.** Its Activity is “Non-Toxic”.

**Q.** For `CN(C)C(=O)Cn1ncc2c(NC(=O)c3cc(Cl)ccc3O)cccc21`, which Activity is on record?
**A.** The Activity was “Non-Toxic”.

**Q.** With `O=C(O)CCn1cc2c(NC(=O)c3cc(Cl)ccc3O)cccc2n1` as the compound, how does the Activity read?
**A.** The Activity was “Non-Toxic”.

**Q.** For `CN(C)C(=O)Cn1cc2c(NC(=O)c3cc(Cl)ccc3O)cccc2n1`, which Activity is on record?
**A.** The Activity was “Non-Toxic”.

**Q.** Which Activity does the source give for `O=C(Nc1cccc2cn[nH]c12)c1cc(Cl)ccc1O` here?
**A.** Its Activity is “Non-Toxic”.

**Q.** With `O=C(Nc1cccc2c1cnn2C(=O)c1c(Cl)cccc1Cl)c1cc(Cl)ccc1O` as the compound, how does the Activity read?
**A.** Its Activity is “Non-Toxic”.

**Q.** For `O=C(Nc1cccc2c1cnn2C(=O)N1CCOCC1)c1cc(Cl)ccc1O`, which Activity is on record?
**A.** The Activity was “Non-Toxic”.

**Q.** For `O=C(Nc1ccc2cn[nH]c2c1)c1cc(Cl)ccc1O`, which Activity is on record?
**A.** Its Activity is “Non-Toxic”.

**Q.** For `O=C(Nc1cccc2cc[nH]c12)c1cc(Cl)ccc1O`, which Activity is on record?
**A.** The Activity was “Non-Toxic”.

**Q.** For `O=C(Nc1cccc2c1cnn2CCO)c1cc(Cl)ccc1O`, which Activity is on record?
**A.** The Activity was “Non-Toxic”.

**Q.** For `O=C(O)CCn1ncc2c(NC(=O)c3cc(Cl)ccc3O)cccc21`, which Activity is on record?
**A.** Its Activity is “Non-Toxic”.

**Q.** Which Activity does the source give for `O=C(Nc1ccc2[nH]ncc2c1)c1cc(Cl)ccc1O` here?
**A.** Its Activity is “Non-Toxic”.

**Q.** Which Activity does the source give for `COC(=O)CCn1ncc2c(NC(=O)c3cc(Cl)ccc3O)cccc21` here?
**A.** The Activity was “Non-Toxic”.

Tested on: MG-63
Experiment: Cytotoxicity against human MG-63 cells assessed as reduction in cell viability incubated for 48 hrs by MTT assay
Assay type: functional, cell-based
Conditions: MG-63, 48 h

**Q.** Which IC50 does the source give for `O=C(Nc1cc(C(F)(F)F)cc(C(F)(F)F)c1)c1cc(Cl)ccc1O` [IMD-0354] here?
**A.** Its IC50 is 48.7 µM.
